From patent publication US20030003519A1, “Compositions and methods for the discovery and selection of biological information” (priority 2000, published 2003) come the findings set out here.

As a reminder, the IC50 is the concentration at which inhibition is half-maximal.

Read-outs that look alike come from different tables or passages of the source.

In the experiment the test system is effect of IL-1β on SEAP reporter gene activity in selected NIH3T3 cells. Nature of the experiment: IL-1β-induced SEAP reporter gene activity in selected NIH3T3 cell clones. To be noted: IL-1β-stimulated selected NIH3T3 cells, read-out: IC50 value of the inhibition of SEAP activity. Type of experiment: cell-based.

`COc1cccc(-c2cc(=O)c3ccccc3o2)c1N` [PD98059]: the IC50 is approximately 1 µM.

For `N#CC(=C(/N)Sc1ccccc1N)/C(C#N)=C(\N)Sc1ccccc1N` [U0126], the IC50 (Mus musculus) is approximately 1 µM. Same read-out and setting: then `Cc1ccc(-c2cc(C(F)(F)F)nn2-c2ccc(S(N)(=O)=O)cc2)cc1` [celecoxib], with approximately 0.2 µM.
